This is an account of results in US11760744B2, “Fused ring compounds” (Genentech, Inc., priority 2018, dated 2023).

Experiment [1] concerns the target T1, K-Ras G12C (Homo sapiens, UniProt P01116, G12C). The experiment is described as follows: Western blot assay for in cell alkylation of K-Ras G12C (HCC1171 cells). The format is cell-based. The arrangement: endogenous in cells; host or cells: HCC1171. The note with it: 18 hours at 37° C., 7 point dose response. In outline: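 HCC1171 cells exposed to compounds for 18 h at 37° C, lysed, and analysed by SDS-PAGE/western blot with anti-K-Ras antibody and fluorescent secondary. Alkylated K-Ras separated by band shift; % alkylation = FI(alkylated)/(FI(alkylated)+FI(unalkylated))×100, IC50 from 7-point dose response.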
(In general: Immunoblotting shows a protein as a band on a membrane.)
Target sequence in this assay (P01116 1-188 isoform P01116-2 G12C): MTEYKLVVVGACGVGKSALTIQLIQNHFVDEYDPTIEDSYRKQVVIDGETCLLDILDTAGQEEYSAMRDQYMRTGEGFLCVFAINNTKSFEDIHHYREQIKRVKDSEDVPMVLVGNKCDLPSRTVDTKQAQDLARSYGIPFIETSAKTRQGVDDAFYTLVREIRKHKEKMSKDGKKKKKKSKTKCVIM

Experiment [2] addresses T1, K-Ras G12C. The experiment is described as follows: K-Ras G12C, SOS1, Raf RBD HTRF assay for inhibition of GTP exchange. In kind it is biochemical. The note with it: 18 hours preincubation with K-Ras G12C at room temperature; SOS1-mediated GTP exchange. The arrangement: K-Ras G12C (residues 2-188) and SOS1 (residues 564-1049) had N-terminal 6-His; made in house; host or cells: E. coli. In outline:
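After 18 h at room temperature with compound, SOS1 (1.25 nM final) started exchange to GTP (150 μM final). C-Raf RBD, Tb-anti-FLAG and D2-anti-his (50, 1 and 12.5 nM) were then added. The 665/615 nm HTRF ratio was read after 2 h; buffer was HEPES/NaCl, 1 mM MgCl2, BSA, Tween-20 and DTT.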
A general note: Time-resolved FRET reads energy transfer from a long-lived donor to a nearby acceptor.
Target sequence in this assay (P01116 2-188 isoform P01116-2 G12C): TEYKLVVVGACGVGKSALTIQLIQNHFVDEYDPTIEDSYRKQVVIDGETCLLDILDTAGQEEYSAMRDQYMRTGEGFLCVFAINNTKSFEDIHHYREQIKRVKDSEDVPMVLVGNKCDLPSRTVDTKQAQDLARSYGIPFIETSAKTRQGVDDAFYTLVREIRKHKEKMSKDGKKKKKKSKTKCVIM

The target in experiment [3] is T2, K-Ras G12C mutant protein (Homo sapiens, UniProt P01116, G12C).
T2 construct: K-Ras G12C (residues 2-188) and SOS1 (residues 564-1049) had N-terminal 6-His; made in house; host or cells: E. coli
T2 sequence (P01116 2-188 isoform P01116-2 G12C): as above
The experiment in a line: K-Ras G12C HTRF assay. The format is biochemical. The note with it: Table 1; unit or assay not given; several values in one cell. The method, then: In the above definition of R^2, the electrophilic moiety that is capable of forming a covalent bond with a cysteine residue is determined via K-Ras G12C-alkylation studies and Homogeneous Time Resolved Fluorescence (HTRF) assays. The G12C mutation of the K-Ras gene is a change in amino acid from glycine to cysteine at the 12th amino acid. The compounds according to the present disclosure were discovered using the HTRF assay and the K-Ras G12C-alkylation assay, as further detailed elsewhere herein below, and then NMR spectroscopy was later used to validate the specificity with which the molecule was attaching to G12C.

With `C=CC(=O)N1CCN(c2ncnc3c2CCC(c2c(C)ccc4[nH]ncc24)C3)CC1` (racemic) [Example 2, 1-(4-(7-(5-methyl-1H-indazol-4-yl)-5,6,7,8-tetrahydroquinazolin-4-yl)piperazin-1-yl)prop-2-en-1-one], the response in experiment [1] was half-maximal at 6100 nM (EC50). Also, the IC50 in experiment [2] and in experiment [3] was 840 nM throughout.
Compound `C=CC(=O)N1CCN(c2ncnc3c2CC(C)C(c2nc(N)cc(C)c2C(F)(F)F)C3)CC1` (single isomer, unassigned) [Example 1, 1-(4-(7-(6-amino-4-methyl-3-(trifluoromethyl)pyridin-2-yl)-6-methyl-5,6,7,8-tetrahydroquinazolin-4-yl)piperazin-1-yl)prop-2-en-1-one] yielded an IC50 in experiment [3] of over 50000 nM.
In turn, `C=CC(=O)N1CCC(C#N)(c2nc(OCC3CCCN3C)nc3c2CCC(c2cc(O)cc4ccccc24)C3)CC1` (stereo not shown) [Example 7, 1-acryloyl-4-(7-(3-hydroxynaphthalen-1-yl)-2-((1-methylpyrrolidin-2-yl)methoxy)-5,6,7,8-tetrahydroquinazolin-4-yl)piperidine-4-carbonitrile] yielded a half-maximal inhibitory concentration (IC50) in experiment [3] of 87 nM.
On the same count and under the same terms, the same measure for `COc1ccc(CN(Cc2ccc(OC)cc2)c2cc(C)c(I)c(C3Cc4nc(OCC5CCCN5C)nc(N5CCN(C(=O)OC(C)(C)C)CC5C)c4CC3C)c2F)cc1` (stereo not shown) [Example 14, tert-butyl 4-(7-(3-(bis(4-methoxybenzyl)amino)-2-fluoro-6-iodo-5-methylphenyl)-6-methyl-2-((1-methylpyrrolidin-2-yl)methoxy)-5,6,7,8-tetrahydroquinazolin-4-yl)-3-methylpiperazine-1-carboxylate]: over 50000 nM.
Compound `C=CC(=O)N1CCN(c2ncnc3c2CC(C(C)C)C(c2cc(O)cc4ccccc24)C3)CC1` (stereo not shown) [Example 16, 1-(4-(7-(3-hydroxynaphthalen-1-yl)-6-isopropyl-5,6,7,8-tetrahydroquinazolin-4-yl)piperazin-1-yl)prop-2-en-1-one] showed an EC50 in experiment [1] of 1200 nM. In addition, the IC50 in experiment [2] and in experiment [3] was 120 nM throughout.
In the case of `C=CC(=O)N1CCN(c2ncnc3c2CCC(c2c(C)ccc4cn[nH]c24)C3)CC1` (stereo not shown) [Example 17, 1-[4-[7-(6-methyl-1H-indazol-7-yl)-5,6,7,8-tetrahydroquinazolin-4-yl]piperazin-1-yl]prop-2-en-1-one], a half-maximal effect in experiment [1] (EC50) was put at 6700 nM. Besides, the IC50 in experiment [2] and in experiment [3] was 700 nM throughout.
`C=CC(=O)N1CCN(c2nc(OCC3CCCN3C)nc3c2CC(C)C(c2c(C)ccc4[nH]ncc24)C3)CC1` (stereo not shown) [Example 18, 1-(4-(6-methyl-7-(5-methyl-1H-indazol-4-yl)-2-((1-methylpyrrolidin-2-yl)methoxy)-5,6,7,8-tetrahydroquinazolin-4-yl)piperazin-1-yl)prop-2-en-1-one]: the IC50 in experiment [3] was found to be 24 nM.
`C=CC(=O)N1CCN(c2nc(OCC3CCCN3C)nc3c2CCC2(CCCCC2)C3)CC1` (stereo not shown) [Example 25, 1-(4-(2′-((1-methylpyrrolidin-2-yl)methoxy)-5′,8′-dihydro-6′H-spiro[cyclohexane-1,7′-quinazolin]-4′-yl)piperazin-1-yl)prop-2-en-1-one] had an IC50 in experiment [3] of 5400 nM.
`C=CC(=O)N1CCN(c2ncnc3c2CC(C)C(c2cc(O)cc4ccccc24)C3)CC1` (stereo not shown) [Example 39, 1-(4-(7-(3-hydroxynaphthalen-1-yl)-6-methyl-5,6,7,8-tetrahydroquinazolin-4-yl)piperazin-1-yl)prop-2-en-1-one] showed an EC50 in experiment [1] of 720 nM. Besides, the IC50 in experiment [2] and in experiment [3] was 180 nM each time.
Consider `C=CC(=O)N1CCN(c2ncnc3c2CCC(c2cc(O)cc4ccccc24)C3)CC1` (stereo not shown) [Example 43, 1-[4-[7-(3-hydroxy-1-naphthyl)-5,6,7,8-tetrahydroquinazolin-4-yl]piperazin-1-yl]prop-2-en-1-one], for which the IC50 in experiment [2] and in experiment [3] was 200 nM each time.
On to `C=CC(=O)N1CCN(c2nc(OCC3CCCN3C)nc3c2CCCC3)CC1` (stereo not shown) [Example 45, 1-(4-(2-((1-methylpyrrolidin-2-yl)methoxy)-5,6,7,8-tetrahydroquinazolin-4-yl)piperazin-1-yl)prop-2-en-1-one], for which, in experiment [3], the IC50 is over 50000 nM.
As for `CN1CCCC1COc1nc2c(c(N3CCN(C(=O)/C=C/CNC45CC(C4)C5)C(CC#N)C3)n1)CCC(c1cccc3ccccc13)C2` (stereo not shown) [Example 48, (E)-2-(1-(4-(bicyclo[1.1.1]pentan-1-ylamino)but-2-enoyl)-4-(2-((1-methylpyrrolidin-2-yl)methoxy)-7-(naphthalen-1-yl)-5,6,7,8-tetrahydroquinazolin-4-yl)piperazin-2-yl)acetonitrile], the IC50 in experiment [3] came out at 11 nM.
Still for that read-out and setting: with `C=CC(=O)N1CCN(c2nc(OCC3CCCN3C)nc3c2CCC(c2cc(O)cc4ccccc24)C3)CC1` (stereo not shown) [Example 49, 1-(4-(7-(3-hydroxynaphthalen-1-yl)-2-((1-methylpyrrolidin-2-yl)methoxy)-5,6,7,8-tetrahydroquinazolin-4-yl)piperazin-1-yl)prop-2-en-1-one] the figure was 23 nM; with `C=CC(=O)Oc1cc(C2CCc3c(nc(OCC4CCCN4C)nc3N3CCN(C(=O)C=C)CC3)C2)c2ccccc2c1` (stereo not shown) [Example 50, 4-(4-(4-acryloylpiperazin-1-yl)-2-((1-methylpyrrolidin-2-yl)methoxy)-5,6,7,8-tetrahydroquinazolin-7-yl)naphthalen-2-yl acrylate], 160 nM.
Regarding `C=CC(=O)N1CC2(CCN(c3nc(OCC4CCCN4C)nc4c3CCC(c3cc(O)cc5ccccc35)C4)CC2)C1` (stereo not shown) [Example 51, 1-[7-[7-(3-hydroxy-1-naphthyl)-2-[(1-methylpyrrolidin-2-yl)methoxy]-5,6,7,8-tetrahydroquinazolin-4-yl]-2,7-diazaspiro[3.5]nonan-2-yl]prop-2-en-1-one], a half-maximal effect in experiment [1] (EC50) was put at 330 nM. Also, the IC50 in experiment [2] and in experiment [3] was 46 nM each time.
`C=CC(=O)N1CCN(c2nc(OCCC3CCCN3C)nc3c2CCC(c2cc(O)cc4ccccc24)C3)CC1` (stereo not shown) [Example 52, 1-(4-(7-(3-hydroxynaphthalen-1-yl)-2-(2-(1-methylpyrrolidin-2-yl)ethoxy)-5,6,7,8-tetrahydroquinazolin-4-yl)piperazin-1-yl)prop-2-en-1-one] gave an IC50 in experiment [3] of 51 nM.
`C=CC(=O)N1CCN(c2nc(OCCCN3CCOCC3)nc3c2CCC(c2cc(O)cc4ccccc24)C3)C(C)C1` (stereo not shown) [Example 53, 1-(4-(7-(3-hydroxynaphthalen-1-yl)-2-(3-morpholinopropoxy)-5,6,7,8-tetrahydroquinazolin-4-yl)-3-methylpiperazin-1-yl)prop-2-en-1-one] showed an IC50 in experiment [3] of 22 nM.
On the same count and under the same terms, with `C=CC(=O)N1CCN(c2nc(OCc3cn(C)cn3)nc3c2CCC(c2cc(O)cc4ccccc24)C3)C(C)C1` (stereo not shown) [Example 54, 1-(4-(7-(3-hydroxynaphthalen-1-yl)-2-((1-methyl-1H-imidazol-4-yl)methoxy)-5,6,7,8-tetrahydroquinazolin-4-yl)-3-methylpiperazin-1-yl)prop-2-en-1-one] the figure was 470 nM; with `C=CC(=O)N1CCN(c2nc(OCC3CCC(=O)N3)nc3c2CCC(c2cc(O)cc4ccccc24)C3)C(C)C1` (stereo not shown) [Example 55, 5-(((4-(4-acryloyl-2-methylpiperazin-1-yl)-7-(3-hydroxynaphthalen-1-yl)-5,6,7,8-tetrahydroquinazolin-2-yl)oxy)methyl)pyrrolidin-2-one], 1400 nM.
On the same count and under the same terms, the same measure for `C=CC(=O)N1CC(C)N(c2nc(OCC3CCCN3C)nc3c2CCC(c2cc(O)cc4ccccc24)C3)C(C)C1` (stereo not shown) [Example 56, 1-(4-(7-(3-hydroxynaphthalen-1-yl)-2-((1-methylpyrrolidin-2-yl)methoxy)-5,6,7,8-tetrahydroquinazolin-4-yl)-3,5-dimethylpiperazin-1-yl)prop-2-en-1-one]: 73 nM; for `C=CC(=O)Oc1cc(C2CCc3c(nc(OCC4CCCN4C)nc3N3CCN(C(=O)C=C)C(CC#N)C3)C2)c2ccccc2c1` (stereo not shown) [Example 59, 4-(4-(4-acryloyl-3-(cyanomethyl)piperazin-1-yl)-2-((1-methylpyrrolidin-2-yl)methoxy)-5,6,7,8-tetrahydroquinazolin-7-yl)naphthalen-2-yl acrylate]: 250 nM.
Regarding `C=CC(=O)Oc1cc(C2CCc3c(nc(OC[C@@H]4CCCN4C)nc3N3CCN(C(=O)C=C)C(CC#N)C3)C2)c2ccccc2c1` (stereo partly drawn) [Example 59a, 4-(4-(4-acryloyl-3-(cyanomethyl)piperazin-1-yl)-2-(((S)-1-methylpyrrolidin-2-yl)methoxy)-5,6,7,8-tetrahydroquinazolin-7-yl)naphthalen-2-yl acrylate], in experiment [1], the EC50 is 29 nM. In experiment [2], the IC50 was determined as 250 nM.

As a reminder, the EC50 is the concentration at which the effect is half-maximal. As usually defined, the IC50 is the point on the concentration scale where inhibition reaches its midpoint. Lower therefore signals greater potency.
